Reference: USRE30511E, “Imidazo[1,5-d]-as-triazine-4(3H)-ones and thiones” (American Cyanamid Company, priority 1979, dated 1981)

Legend:
[1] = system: Mouse Skin Phosphodiesterase; assay: Mouse skin phosphodiesterase (PDE) inhibition test; format: biochemical, Hairless mice; design: key: Active: A compound is considered active if it inhibits more than theophylline, that is, to 50% of control at 1 mM concentration of compound, or to 80% of control of 0.05 mM concentration of compound; settings: 10 ug./ml. final concentration; 30° C. for 15 minutes
[2] = system: Monkey Lung Cyclic AMP Phosphodiesterase; assay: Monkey lung phosphodiesterase inhibition test; format: biochemical, African green monkeys; settings: usually 1 mM or 0.1 mM; pH 7.4, 25° C. for 20 minutes
Experimental: Lung parenchyma of African green monkeys is homogenized in a Waring blender and centrifuged at 40,000×gravity for 20 minutes. The supernatant is brought to 70% saturation of ammonium sulfate, centrifuged and the pellet redissolved and dialysed, before aliquoting and storage at --20° C.
Phosphodiesterase is assayed by the method of Thompson and Appleman, ibid. An assay tube contains a 0.4 ml. solution of the following: 45 mM tris-HCl buffer, pH 7.4, […], 0.1 mM dithioerythritol, 10^-6 M cyclic AMP, 0.1 uCi [^3 H]-cyclic AMP, and test compound at the desired concentration (usually 1 mM or 0.1 mM). Compounds not readily soluble in water are dissolved at 40 times the desired concentration in methanol, and diluted 20 times with water. If the compound is not dissolved at this time, it is suspended by sonication before being diluted 1:2 into the assay tube. In this case the activity of the enzyme in the presence of the compound is compared to a solvent control (2.5% methanol), although the solvent alone has negligible effect. The reaction is initiated by addition of enzyme and proceeds at 25° C. for 20 minutes. It is terminated by incubation at 100° C. for 2 minutes. The tubes are cooled to 25° C., 0.8 ug of 5'-nucleotidase (Crotolu adamantus toxin) is added to each and the tubes incubated at 25° C. for 30 minutes. A 1 milliliter suspension of Bio-Rad Labs. AGIX8 (about 0.5 ml. of settled resin) is added, the tubes centrifuged at 900×gravity for 10 minutes and an aliquot of supernatant removed for scintillation counting. The inhibition by the test compound is calculated as: [formula] where `compound` is the cpm in the presence of compound, `control` is the cpm in the absence of compound, and `blank` is the cpm in the absence of enzyme. […] For this reason, control tubes which contained [^3 H]-AMP instead of [^3 H]-cyclic AMP are run in parallel. A correction of the apparent phosphodiesterase activity is made for the rare compound which inhibited the hydrolysis of AMP.

[3] = Dispersion of aerosol suspension on warming after storage; format: physicochemical; settings: aerosol suspension in dichlorodifluoromethane with sorbitan trioleate, sonified
Experimental: The active ingredient and sorbitan trioleate are placed in a beaker and the dichlorodifluoromethane is added at -40° C. whereupon a suspension is formed. The mixture is sonified, that is, treated with a Sonifier, manufactured by the Branson Sonic Power Co. of Danbury, Conn., as model LS-75 at a current input of 9 amperes for 2 minutes. Additional cold dichlorodifluoromethane is added as necessary to keep the volume at 100 ml. The mixture is uniformly dispersed, and has increased stability resulting from the sonification. Each of six 19 ml. stainless steel containers are filled with 15 ml. of the cold mixture, then valves are inserted and sealed in place.

SMILES | Mouse Skin Phosphodiesterase (A) [1] | Monkey lung phosphodiesterase inhibition (B) [2] | dispersion of the aerosol suspension [3]
Cc1nc(Cc2ccccc2)n2c(=S)[nH]ncc12 [6-Benzyl-8-methyl-imidazo[1,5-d]-as-triazine-4(3H)-thione] | Active | Active | –
O=c1[nH]ncc2cnc(Cc3ccccc3)n12 [6-Benzyl-imidazo[1,5-d]-as-triazin-4(3H)-one] | Active | – | –
O=c1[nH]ncc2cnc(-c3ccccc3)n12 [6-Phenyl-imidazo[1,5-d]-as-triazin-4(3H)-one] | Active | – | –
CCCc1ncc2cn[nH]c(=S)n12 [6-n-Propyl-imidazol[1,5-d]-as-triazine-4(3H)-thione] | Active | Active | –
CCCOc1ccccc1-c1ncc2cn[nH]c(=O)n12 [6-o-Propoxyphenyl-imidazo[1,5-d]-as-triazine-4(3H)-one] | Active | – | –
O=c1[nH]ncc2c(Br)nc(-c3ccccc3)n12 [8-Bromo-6-phenyl-imidazo[1,5-d]-as-triazin-4(3H)-one] | Active | Active | –
CCCc1nc(C)c2cn[nH]c(=S)n12 [8-Methyl-6-n-propyl-imidazolo[1,5-d]-as-triazine-4(3H)-thione] | Active | Active | –
Cc1nc(-c2ccccc2)n2c(=S)[nH]ncc12 [8-Methyl-6-phenyl-imidazo[1,5-d]-as-triazine-4-(3H)-thione] | Active | – | –
CC(C)c1nc(Cl)c2cn[nH]c(=S)n12 [8-chloro-6-isopropyl-imidazo[1,5-d]-as-triazine-4(3H)-thione] | – | – | remains dispersed

The remaining lines, values ahead:

Mouse Skin Phosphodiesterase (A) [1] | Monkey lung phosphodiesterase inhibition (B) [2] | dispersion of the aerosol suspension [3] | SMILES
Active | Active | – | Cc1nc(C)n2c(=O)[nH]ncc12 [6,8-Dimethyl-imidazo[1,5-d]-as-triazin-4(3H)-one]
Active | – | – | Cc1nc(C)n2c(=S)[nH]ncc12 [6,8-Dimethyl-imidazo[1,5-d]-as-triazine-4-(3H)-thione]
Active | – | – | Cc1nc(Cc2ccccc2)n2c(=O)[nH]ncc12 [6-Benzyl-8-methyl-imidazo[1,5-d]-as-triazin-4(3H)-one]
Active | – | – | CCCc1ncc2cn[nH]c(=O)n12 [6-n-Propyl-imidazo[1,5-d]-as-triazin-4(3H)-one]
Active | Active | – | Cc1nc(C(C)(C)C)n2c(=O)[nH]ncc12 [6-tert-Butyl-8-methyl-imidazo[1,5-d]-as-triazin-4(3H)-one]
Active | – | – | CC(C)(C)c1ncc2cn[nH]c(=O)n12 [6-tert-Butyl-imidazo[1,5-d]-as-triazin-4(3H)-one]
Active | Active | – | O=c1[nH]ncc2c(Cl)nc(-c3ccccc3)n12 [8-Chloro-6-phenyl-imidazo[1,5-d]-as-triazin-4(3H)-one]
Active | Active | – | Cc1nc(-c2ccccc2)n2c(=O)[nH]ncc12 [8-Methyl-6-phenyl-imidazo[1,5-d]-as-triazin-4(3H)-one]
Active | – | – | Cc1ncn2c(=O)[nH]ncc12 [8-Methyl-imidazo[1,5-d]-as-triazin-4(3H)-one]
Active | – | – | Cc1ncn2c(=S)[nH]ncc12 [8-Methyl-imidazo[1,5-d]-as-triazine-4-(3H)-thione]
